Values of other authors as cited in patent publication US20050249806A1, “Combination of proton pump inhibitor, buffering agent, and nonsteroidal anti-inflammatory drug” (Santarus, Inc., priority 2004, published 2005).

Key:
[1] = pharmacokinetic half-life

SMILES	half-life [1]	water solubility
CCc1cccc2c3c([nH]c12)C(CC)(CC(=O)O)OCC3 (stereo not shown) [etodolac]	about 7 hours	
CC(C(=O)O)c1ccc(-c2ccccc2)c(F)c1 (stereo not shown) [flurbiprofen]	about 6 hours	
O=C(c1ccccc1)c1ccc2n1CCC2C(=O)O (stereo not shown) [ketorolac]	8 to 9 h	
Cc1cccc(Nc2ccccc2C(=O)O)c1C [mefenamic acid]	up to 4 hours	
COc1ccc2cc(CCC(C)=O)ccc2c1 [nabumetone]	22 to 30 h	
COc1ccc2[nH]c([S+]([O-])Cc3ncc(C)c(OC)c3C)nc2c1 (stereo not shown) [omeprazole]		poor water solubility
O=C(O)CCc1nc(-c2ccccc2)c(-c2ccccc2)o1 [oxaprozin]	42 to 50 h	
